Legend:
[1] = test system: L1210; experiment: Log of initial tumor cell population minus log of tumor cell population at end of treatment in L1210 lymphoid leukemic mice; assay type: functional, Mus musculus
[2] = test system: Mus musculus; experiment: Highest active dose in L1210 lymphoid leukemic mice at dose of 2-4.5 mg/kg; assay type: functional
[3] = biological target: T1, DNA topoisomerase 1 (Homo sapiens, UniProt P11387); experiment: Inhibition of Topoisomerase I by cleavage complex formation in human HL-60 cells; assay type: cell-based
T1 sequence (P11387 whole entry): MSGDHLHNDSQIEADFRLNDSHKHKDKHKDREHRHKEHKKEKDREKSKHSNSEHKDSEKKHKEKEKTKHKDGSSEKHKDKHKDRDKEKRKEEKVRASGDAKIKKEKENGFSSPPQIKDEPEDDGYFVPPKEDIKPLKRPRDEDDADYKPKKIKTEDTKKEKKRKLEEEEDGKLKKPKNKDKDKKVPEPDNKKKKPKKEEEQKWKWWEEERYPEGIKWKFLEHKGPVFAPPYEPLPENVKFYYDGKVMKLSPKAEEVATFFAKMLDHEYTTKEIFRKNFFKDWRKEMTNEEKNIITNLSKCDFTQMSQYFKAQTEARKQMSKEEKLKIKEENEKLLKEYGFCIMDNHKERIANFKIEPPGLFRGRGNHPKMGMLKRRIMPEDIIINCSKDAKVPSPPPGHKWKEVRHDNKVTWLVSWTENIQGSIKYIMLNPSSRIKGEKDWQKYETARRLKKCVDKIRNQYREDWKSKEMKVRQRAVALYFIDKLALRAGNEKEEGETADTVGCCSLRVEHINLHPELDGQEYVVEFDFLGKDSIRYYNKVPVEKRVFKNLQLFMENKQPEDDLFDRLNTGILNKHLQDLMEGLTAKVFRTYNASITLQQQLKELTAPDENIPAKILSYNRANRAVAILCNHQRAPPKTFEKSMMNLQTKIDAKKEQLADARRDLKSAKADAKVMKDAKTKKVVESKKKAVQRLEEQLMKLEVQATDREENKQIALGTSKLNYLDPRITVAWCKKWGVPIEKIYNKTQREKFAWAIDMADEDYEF

[4] = species on record: Mus musculus; experiment: Percent median survival time of treated leukemic mice compared to control; assay type: functional
[5] = species on record: Mus musculus; experiment: Number of L1210 lymphoid leukemic mice cured out of […]; assay type: functional
[6] = test system: Mus musculus; experiment: Relative survival in RAW117-H10 cells implanted mice in comparison to control at dose of 3.5 mg/kg; assay type: functional
[7] = test system: HT-29; experiment: Tumor volume in HT-29 cells after subcutaneous administration on days 16,20,23,27,30,34,37,41,44,48 at dose of 3.5 mg/kg; assay type: functional, Homo sapiens
[8] = Number of metastases in K1735-M2 murine melanoma cells after subcutaneous administration on days1,4,6,8 at dose of 3.5 mg/kg; assay type: functional, Mus musculus
[9] = test system: Mus musculus; experiment: Relative survival in L1210 lymphoid leukemic mice after subcutaneous administration on days 1,4,6,8 at dose of 3.5 mg/kg; assay type: functional
[10] = test system: HT-29; experiment: Tumor volume in HT-29 cells after subcutaneous administration on days 16,20,23,27,30,34,37,41,44,48 at dose of 1.5 mg/kg; assay type: functional, Homo sapiens
[11] = test system: Mus musculus; experiment: Highest active dose in L1210 lymphoid leukemic mice at dose range of 0.3-1.5 mg/kg; assay type: functional
[12] = test system: Mus musculus; experiment: Relative survival in RAW117-H10 cells implanted mice in comparison to control at dose of 1.5 mg/kg; assay type: functional
[13] = test system: Mus musculus; experiment: Relative survival in L1210 lymphoid leukemic mice after subcutaneous administration on days1,4,6,8 at dose of 1.5 mg/kg; assay type: functional
[14] = Number of metastases in K1735-M2 murine melanoma cells after subcutaneous administration on days1,4,6,8 at dose of 1.5 mg/kg; assay type: functional, Mus musculus
[15] = test system: Mus musculus; experiment: Highest active dose in L1210 lymphoid leukemic mice at dose range of 2.37-12.00 mg/kg; assay type: functional
[16] = species on record: Mus musculus; experiment: Toxic dose in L1210 lymphoid leukemic mice; assay type: toxicity, organism-based; conditions: in vivo
[17] = test system: Mus musculus; experiment: Highest active dose in L1210 lymphoid leukemic mice at range of 1.25-20 mg/kg; assay type: functional
[18] = test system: Mus musculus; experiment: Median survival time of treated/control L1210 leukemic mice after i.v. drug dosing on hours 1 and 5; assay type: functional
[19] = test system: Mus musculus; experiment: Number of L1210 mice cured after i.v. drug dosing on hours 1 and 5; assay type: functional
[20] = test system: Mus musculus; experiment: Highest active dose in L1210 lymphoid leukemic mice at dose range of 2.5-20 mg/kg after i.v. drug dosing on hours 1 and 5; assay type: functional
[21] = test system: Mus musculus; experiment: Toxic dose in L1210 lymphoid leukemic mice at dose of 20 mg/kg after i.v. drug dosing on hours 1 and 5; NT means not toxic; assay type: toxicity, organism-based; design: dose 20 mg/kg, route intravenous; conditions: in vivo, iv
[22] = test system: L1210; experiment: Log of initial tumor cell population minus log of tumor cell population at end of treatment after i.v. drug dosing on hours 1 and 5; assay type: functional, Mus musculus
[23] = test system: Mus musculus; experiment: Relative survival in L1210 lymphoid leukemic mice after subcutaneous administration on days1,4,6,8 at dose of 6 mg/kg; assay type: functional
[24] = test system: Mus musculus; experiment: Relative survival in RAW117-H10 cells implanted mice in comparison to control at dose of 6 mg/kg; assay type: functional
[25] = Number of metastases in K1735-M2 murine melanoma cells after subcutaneous administration on days1,4,6,8 at dose of 6 mg/kg; assay type: functional, Mus musculus
[26] = test system: Mus musculus; experiment: Highest active dose in L1210 lymphoid leukemic mice at range of 3.63-15.5 mg/kg; assay type: functional
[27] = test system: Mus musculus; experiment: Highest active dose in L1210 lymphoid leukemic mice at range of 1.35-3.74 mg/kg; assay type: functional
[28] = test system: Mus musculus; experiment: Highest active dose in L1210 lymphoid leukemic mice at range of 10-80 mg/kg; assay type: functional
[29] = test system: Mus musculus; experiment: Relative survival in RAW117-H10 cells implanted mice in comparison to control at dose of 3 mg/kg; assay type: functional
[30] = test system: Mus musculus; experiment: Relative survival in L1210 lymphoid leukemic mice after subcutaneous administration on days 1,4,6,8 at dose of 3 mg/kg; assay type: functional
[31] = Number of metastases in K1735-M2 murine melanoma cells after subcutaneous administration on days1,4,6,8 at dose of 3 mg/kg; assay type: functional, Mus musculus
[32] = test system: Mus musculus; experiment: Highest active dose in L1210 lymphoid leukemic mice at dose range of 2-4 mg/kg; assay type: functional
[33] = test system: Mus musculus; experiment: Highest active dose in L1210 lymphoid leukemic mice at range of 5-20 mg/kg; assay type: functional
[34] = species on record: Mus musculus; experiment: Toxic dose to L1210 lymphoid leukemic mice; assay type: toxicity, organism-based; conditions: in vivo
[35] = test system: Mus musculus; experiment: Highest active dose in L1210 lymphoid leukemic mice after i.v. drug dosing on hours 1 and 5 at dose range of 1.25-20 mg/kg; assay type: functional
[36] = biological target: T1, DNA topoisomerase 1; experiment: Inhibition of Topoisomerase I by cleavage complex formation in intact human HL-60 cells; assay type: cell-based
[37] = test system: L1210; experiment: Toxic dose in L1210 murine lymphoid leukemia after i.v. drug dosing on hours 1 and 5; NT means not toxic at 20 mg/kg; assay type: toxicity, organism-based; design: dose 20 mg/kg, route intravenous; conditions: mouse, in vivo, iv
[38] = test system: Mus musculus; experiment: Median survival time of treated/control animals x 100 after i.v. drug dosing on hours 1 and 5; assay type: functional
[39] = test system: L1210; experiment: Toxic dose in L1210 murine lymphoid leukemia at dose of 20 mg/kg after i.v. drug dosing on hours 1 and 5; NT means not toxic; assay type: toxicity, organism-based; design: dose 20 mg/kg, route intravenous; conditions: mouse, in vivo, iv
[40] = test system: Mus musculus; experiment: Highest active dose in L1210 lymphoid leukemic mice at dose range of 10-40 mg/kg; assay type: functional
[41] = test system: Mus musculus; experiment: Highest active dose in L1210 lymphoid leukemic mice at dose of 5.3-12 mg/kg; assay type: functional

Row | SMILES | KE [1] | IC50 [3] [nM] | T/C [4] [%] | Cures [5] | Toxic dose [16] [mg/kg] | further results
1 | CC[C@@]1(O)C(=O)OCc2c1cc1n(c2=O)Cc2cc3cc(N)ccc3nc2-1 | >5.99 | 140 | 565 | 6 | – | Highest active dose [2]: 4.5 mg/kg
2 | CC[C@@](O)(C(=O)[O-])c1cc2n(c(=O)c1CO)Cc1cc3c(N)c4c(cc3nc1-2)OCO4.[Na+] | – | 4300 | – | – | – | T/C [6]: 1.75; Control [7]: 38%; Control [8]: 51%; T/C [9]: 2.56
3 | CC[C@@]1(O)C(=O)OCc2c1cc1n(c2=O)Cc2cc3c(N)c4c(cc3nc2-1)OCO4 | 5.8 | 48 | 336 | 4 | – | Control [10]: 17%; Highest active dose [11]: 1.5 mg/kg; T/C [12]: 1.25; T/C [13]: 1.98; Control [14]: 17%
4 | CC[C@@]1(O)C(=O)OCc2c1cc1n(c2=O)Cc2cc3c(Cl)cccc3nc2-1 | 0 | 86 | 150 | 0 | – | Highest active dose [15]: 12 mg/kg
5 | CCC1(O)C(=O)OCc2c1cc1n(c2=O)Cc2cc3c([N+](=O)[O-])cccc3nc2-1 (centres undefined) | 5.97 | – | 348 | 5 | 40 | Highest active dose [17]: 10 mg/kg
6 | CCC(O)(C(=O)[O-])c1cc2n(c(=O)c1CO)Cc1cc3cc([O-])ccc3nc1-2.[Na+].[Na+] (centres undefined) | – | 3200 | – | – | – | T/C [18]: 184%; Cures [19]: 0; Highest active dose [20]: 20 mg/kg; Toxic dose [21]: Non-toxic; KE [22]: 3.24
7 | CCC(O)(C(=O)[O-])c1cc2n(c(=O)c1CO)Cc1cc3c(N)c4c(cc3nc1-2)OCO4.[Na+] (racemic) | – | 5500 | – | – | – | T/C [23]: 1.78; T/C [24]: 1.4; Control [25]: 98%
8 | CCC1(O)C(=O)OCc2c1cc1n(c2=O)Cc2cc3cc([N+](=O)[O-])ccc3nc2-1 (racemic) | 5.97 | – | 233 | 0 | 31 | Highest active dose [26]: 7.25 mg/kg
9 | CCC1(O)C(=O)OCc2c1cc1n(c2=O)Cc2cc3cc(N)ccc3nc2-1 (racemic) | 5.97 | – | 365 | 3 | 6.25 | Highest active dose [27]: 3.75 mg/kg
10 | CCC1(O)C(=O)OCc2c1cc1n(c2=O)Cc2cc3cc(C)ccc3nc2-1 (racemic) | 4.66 | – | 207 | 0 | – | Highest active dose [28]: 10 mg/kg
11 | CCC1(O)C(=O)OCc2c1cc1n(c2=O)Cc2cc3cc4c(cc3nc2-1)OCO4 (racemic) | 5.97 | – | 325 | 2 | 8 | T/C [29]: 1.04; T/C [30]: 1.22; Control [31]: 65%; Highest active dose [32]: 2 mg/kg
12 | CCC1(O)C(=O)OCc2c1cc1n(c2=O)Cc2cc3cc(Cl)ccc3nc2-1 (racemic) | 5.97 | – | 280 | 2 | – | Highest active dose [33]: 10 mg/kg; Toxic dose [34]: 40 mg/kg
13 | CCC1(OC(=O)CN)C(=O)OCc2c1cc1n(c2=O)Cc2cc3cc4c(cc3nc2-1)OCO4.Cl (racemic) | – | 430 | 236 | – | – | Cures [19]: 3; Highest active dose [35]: 10 mg/kg; IC50 [36]: 2500 nM; KE [22]: 5.97; Toxic dose [37]: Not toxic
14 | CCC1(O)C(=O)OCc2c1cc1n(c2=O)Cc2cc3c(NC(=O)CN)cccc3nc2-1.Cl (racemic) | – | 570 | – | – | – | Cures [19]: 0; T/C [38]: 180%; Highest active dose [35]: 20 mg/kg; IC50 [36]: > 30000 nM; KE [22]: 2.95; Toxic dose [39]: Non-toxic
15 | CCC1(O)C(=O)OCc2c1cc1n(c2=O)Cc2cc3c(O)cccc3nc2-1 (racemic) | – | 900 | 134 | 0 | – | Highest active dose [40]: 20 mg/kg
16 | CC[C@@]1(O)C(=O)OCc2c1cc1n(c2=O)Cc2cc3ccccc3nc2-1 [CAMPTOTHECIN] | 4.8 | – | 250 | 1 | 10 | Highest active dose [41]: 12 mg/kg

Reference: ChEMBL document CHEMBL1126797 (J Med Chem, 1993)
